Experimental data published in PubChem BioAssay (NCI).
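Interpolation was linear, between the two tested concentrations surrounding the appropriate level; five concentrations were tested over 48 hours in 96-well plates. Abbreviation: GI50, concentration required for 50% inhibition of growth. TGI denotes the concentration required for complete inhibition of growth.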

Tests used:
Assay in all cases: growth of human tumour cells (NCI), 48 h
786-0 renal = tested on: 786-0 renal
A498 renal = tested on: A498 renal
A549 NSCLC = tested on: A549 NSCLC
ACHN renal = tested on: ACHN renal
BT-549 breast = tested on: BT-549 breast
CAKI-1 renal = tested on: CAKI-1 renal
CCRF-CEM leukemia = tested on: CCRF-CEM leukemia
COLO 205 colon = tested on: COLO 205 colon
DU-145 prostate = tested on: DU-145 prostate
EKVX NSCLC = tested on: EKVX NSCLC
HCC-2998 colon = tested on: HCC-2998 colon
HCT-116 colon = tested on: HCT-116 colon
HCT-15 colon = tested on: HCT-15 colon
HL-60(TB) leukemia = tested on: HL-60(TB) leukemia
HOP-62 NSCLC = tested on: HOP-62 NSCLC
HOP-92 NSCLC = tested on: HOP-92 NSCLC
HS 578T breast = tested on: HS 578T breast
HT29 colon = tested on: HT29 colon
IGROV1 ovarian = tested on: IGROV1 ovarian
K-562 leukemia = tested on: K-562 leukemia
KM12 colon = tested on: KM12 colon
M14 melanoma = tested on: M14 melanoma
MALME-3M melanoma = tested on: MALME-3M melanoma
MCF7 breast = tested on: MCF7 breast
MDA-MB-231 breast = tested on: MDA-MB-231 breast
MDA-MB-435 = tested on: MDA-MB-435
MOLT-4 leukemia = tested on: MOLT-4 leukemia
NCI-H226 lung = tested on: NCI-H226 lung
NCI-H23 lung = tested on: NCI-H23 lung
NCI-H460 lung = tested on: NCI-H460 lung
NCI-H522 lung = tested on: NCI-H522 lung
NCI/ADR-RES ovarian = tested on: NCI/ADR-RES ovarian
OVCAR-3 ovarian = tested on: OVCAR-3 ovarian
OVCAR-4 ovarian = tested on: OVCAR-4 ovarian
OVCAR-5 ovarian = tested on: OVCAR-5 ovarian
OVCAR-8 ovarian = tested on: OVCAR-8 ovarian
PC-3 prostate = tested on: PC-3 prostate
RPMI-8226 leukemia = tested on: RPMI-8226 leukemia
RXF 393 renal = tested on: RXF 393 renal
SF-268 CNS = tested on: SF-268 CNS
SF-295 CNS = tested on: SF-295 CNS
SF-539 CNS = tested on: SF-539 CNS
SK-MEL-2 melanoma = tested on: SK-MEL-2 melanoma
SK-MEL-28 melanoma = tested on: SK-MEL-28 melanoma
SK-MEL-5 melanoma = tested on: SK-MEL-5 melanoma
SK-OV-3 ovarian = tested on: SK-OV-3 ovarian
SN12C renal = tested on: SN12C renal
SNB-19 CNS = tested on: SNB-19 CNS
SNB-75 CNS = tested on: SNB-75 CNS
SR leukemia = tested on: SR leukemia
SW-620 colon = tested on: SW-620 colon
T-47D breast = tested on: T-47D breast
TK-10 renal = tested on: TK-10 renal
U251 CNS = tested on: U251 CNS
UACC-257 melanoma = tested on: UACC-257 melanoma
UACC-62 melanoma = tested on: UACC-62 melanoma
UO-31 renal = tested on: UO-31 renal

CN(CCCN)CCCNc1nc2ccccc2c2[nH]c3ccccc3c12
GI50 (786-0 renal): 169 nM
TGI (786-0 renal): 853 nM
GI50 (A498 renal): 1610 nM
TGI (A498 renal): 3.08 µM
GI50 (A549 NSCLC): 160 nM
TGI (A549 NSCLC): 2220 nM
GI50 (ACHN renal): 409 nM
TGI (ACHN renal): 4.45 µM
GI50 (BT-549 breast): 924 nM
TGI (BT-549 breast): 2150 nM
GI50 (CAKI-1 renal): 259 nM
TGI (CAKI-1 renal): 754 nM
GI50 (CCRF-CEM leukemia): 173 nM
TGI (CCRF-CEM leukemia): 1580 nM
GI50 (COLO 205 colon): 178 nM
TGI (COLO 205 colon): 509 nM
GI50 (DU-145 prostate): 300 nM
TGI (DU-145 prostate): 10.3 µM
GI50 (EKVX NSCLC): 1440 nM
TGI (EKVX NSCLC): 8.2 µM
GI50 (HCC-2998 colon): 113 nM
TGI (HCC-2998 colon): 271 nM
GI50 (HCT-116 colon): 173 nM
TGI (HCT-116 colon): 1200 nM
GI50 (HCT-15 colon): 446 nM
TGI (HCT-15 colon): 9.68 µM
GI50 (HL-60(TB) leukemia): 138 nM
TGI (HL-60(TB) leukemia): 590 nM
GI50 (HOP-62 NSCLC): 179 nM
TGI (HOP-62 NSCLC): 683 nM
GI50 (HOP-92 NSCLC): 208 nM
TGI (HOP-92 NSCLC): 736 nM
GI50 (HS 578T breast): 76.5 nM
TGI (HS 578T breast): 334 nM
GI50 (HT29 colon): 193 nM
TGI (HT29 colon): 951 nM
GI50 (IGROV1 ovarian): 329 nM
TGI (IGROV1 ovarian): 1210 nM
GI50 (K-562 leukemia): 63.8 nM
TGI (K-562 leukemia): 346 nM
GI50 (KM12 colon): 51.3 nM
TGI (KM12 colon): 314 nM
GI50 (M14 melanoma): 696 nM
TGI (M14 melanoma): 1930 nM
GI50 (MALME-3M melanoma): 115 nM
TGI (MALME-3M melanoma): 325 nM
GI50 (MCF7 breast): 245 nM
TGI (MCF7 breast): 1030 nM
GI50 (MDA-MB-231 breast): 231 nM
TGI (MDA-MB-231 breast): 774 nM
GI50 (MDA-MB-435): 281 nM
TGI (MDA-MB-435): 816 nM
GI50 (MOLT-4 leukemia): 186 nM
TGI (MOLT-4 leukemia): 1240 nM
GI50 (NCI-H226 lung): 297 nM
TGI (NCI-H226 lung): 997 nM
GI50 (NCI-H23 lung): 201 nM
TGI (NCI-H23 lung): 570 nM
GI50 (NCI-H460 lung): 304 nM
TGI (NCI-H460 lung): 1170 nM
GI50 (NCI-H522 lung): 61.3 nM
TGI (NCI-H522 lung): 215 nM
GI50 (NCI/ADR-RES ovarian): 1480 nM
TGI (NCI/ADR-RES ovarian): 10.8 µM
GI50 (OVCAR-3 ovarian): 359 nM
TGI (OVCAR-3 ovarian): 1350 nM
GI50 (OVCAR-4 ovarian): 201 nM
TGI (OVCAR-4 ovarian): 614 nM
GI50 (OVCAR-5 ovarian): 180 nM
TGI (OVCAR-5 ovarian): 652 nM
GI50 (OVCAR-8 ovarian): 82.5 nM
TGI (OVCAR-8 ovarian): 496 nM
GI50 (PC-3 prostate): 342 nM
TGI (PC-3 prostate): 1280 nM
GI50 (RPMI-8226 leukemia): 207 nM
TGI (RPMI-8226 leukemia): 947 nM
GI50 (RXF 393 renal): 109 nM
TGI (RXF 393 renal): 515 nM
GI50 (SF-268 CNS): 241 nM
TGI (SF-268 CNS): 1070 nM
GI50 (SF-295 CNS): 224 nM
TGI (SF-295 CNS): 738 nM
GI50 (SF-539 CNS): 324 nM
TGI (SF-539 CNS): 943 nM
GI50 (SK-MEL-2 melanoma): 306 nM
TGI (SK-MEL-2 melanoma): 835 nM
GI50 (SK-MEL-28 melanoma): 342 nM
TGI (SK-MEL-28 melanoma): 1170 nM
GI50 (SK-MEL-5 melanoma): 747 nM
TGI (SK-MEL-5 melanoma): 1980 nM
GI50 (SK-OV-3 ovarian): 2070 nM
TGI (SK-OV-3 ovarian): 7.29 µM
GI50 (SN12C renal): 119 nM
TGI (SN12C renal): 606 nM
GI50 (SNB-19 CNS): 229 nM
TGI (SNB-19 CNS): 943 nM
GI50 (SNB-75 CNS): 272 nM
TGI (SNB-75 CNS): 943 nM
GI50 (SR leukemia): 381 nM
TGI (SR leukemia): 2250 nM
GI50 (SW-620 colon): 315 nM
TGI (SW-620 colon): 1640 nM
GI50 (T-47D breast): 283 nM
TGI (T-47D breast): 772 nM
GI50 (TK-10 renal): 540 nM
TGI (TK-10 renal): 3.16 µM
GI50 (U251 CNS): 159 nM
TGI (U251 CNS): 1070 nM
GI50 (UACC-257 melanoma): 1770 nM
TGI (UACC-257 melanoma): 3.49 µM
GI50 (UACC-62 melanoma): 285 nM
TGI (UACC-62 melanoma): 692 nM
GI50 (UO-31 renal): 337 nM
TGI (UO-31 renal): 1340 nM
